According to patent US12404289B2 (Gilead Sciences, Inc., priority 2020, dated 2025):

test system: Respiratory syncytial virus (RSV) strain A2; test: Hep-2 RSV2 384-well assay (EC50-HEP2-384); assay type: cell-based; details: HEp-2 cells, RSV A2, MOI=4, 4 days, Table 3

SMILES	EC50 [µM]
CCC(CC)COC(=O)[C@H](C)NP(=O)(OC[C@H]1O[C@@](C#N)(c2ccc3c(N)ncnn23)[C@H](O)[C@@H]1O)Oc1cccc2c1CCCC2 (single isomer, unassigned) [Example 135]	1.26
CCC(=O)O[C@H]1[C@@H](OC(=O)CC)[C@](C#N)(c2ccc3c(N)ncnn23)O[C@@H]1COP(=O)(N[C@@H](C)C(=O)OCCC(C)(C)CC)Oc1ccccc1 (stereo partly drawn) [Example 105b, (2R,3R,4R,5R)-2-(4-aminopyrrolo[2,1-f][1,2,4]triazin-7-yl)-2-cyano-5-((((((S)-1-((3,3-dimethylpentyl)oxy)-1-oxopropan-2-yl)amino)(phenoxy)phosphoryl)oxy)methyl)tetrahydrofuran-3,4-diyl Dipropionate]	0.0607
CCCOC(=O)[C@H](C)NP(=O)(OC[C@H]1O[C@@](C#N)(c2ccc3c(N)ncnn23)[C@H](O)[C@@H]1O)Oc1ccc(C(C)(C)C)cc1 (single isomer, unassigned) [Example 47b]	0.0683
CCC(=O)O[C@H]1[C@@H](OC(=O)CC)[C@](C#N)(c2ccc3c(N)ncnn23)O[C@@H]1COP(=O)(N[C@@H](C)C(=O)OC1CC2(CCCC2)C1)Oc1ccc(C(C)(C)C)cc1 (stereo partly drawn) [Example 99b, (2R,3R,4R,5R)-2-(4-aminopyrrolo[2,1-f][1,2,4]triazin-7-yl)-5-((((4-(tert-butyl)phenoxy)(((S)-1-oxo-1-(spiro[3.4]octan-2-yloxy)propan-2-yl)amino)phosphoryl)oxy)methyl)-2-cyanotetrahydrofuran-3,4-diyl Dipropionate]	0.0669

same assay, conditions: human respiratory syncytial virus, HEp-2, 96 h, HEp-2 cells, RSV A2, MOI=4, 4 days, Table 3

SMILES	EC50 [µM]
CC(C)C(=O)O[C@H]1[C@@H](OC(=O)C(C)C)[C@](C#N)(c2ccc3c(N)ncnn23)O[C@@H]1COP(=O)(N[C@@H](C)CC(=O)OC1CCC1)Oc1ccc(C(C)(C)C)cc1 (stereo partly drawn) [Example 167, (2R,3R,4R,5R)-2-(4-aminopyrrolo[2,1-f][1,2,4]triazin-7-yl)-5-((((4-(tert-butyl)phenoxy)(((S)-4-cyclobutoxy-4-oxobutan-2-yl)amino)phosphoryl)oxy)methyl)-2-cyanotetrahydrofuran-3,4-diyl bis(2-methylpropanoate)]	5
CC(C)C(=O)O[C@H]1[C@@H](OC(=O)C(C)C)[C@](C#N)(c2ccc3c(N)ncnn23)O[C@@H]1CO[P@@](=O)(N[C@@H](C)C(=O)O[C@H]1CCOC1)Oc1ccc(C(C)(C)C)cc1 [Example 38, (2R,3R,4R,5R)-2-(4-aminopyrrolo[2,1-f][1,2,4]triazin-7-yl)-5-((((4-(tert-butyl)phenoxy)(((S)-1-oxo-1-(((S)-tetrahydrofuran-3-yl)oxy)propan-2-yl)amino)phosphoryl)oxy)methyl)-2-cyanotetrahydrofuran-3,4-diyl bis(2-methylpropanoate)]	0.138
CC(=O)O[C@H]1[C@@H](OC(C)=O)[C@](C#N)(c2ccc3c(N)ncnn23)O[C@@H]1COP(=O)(N[C@@H](C)C(=O)O[C@H]1CCOC1)Oc1ccc(C(C)(C)C)cc1 (stereo partly drawn) [Example 35, (2R,3R,4R,5R)-2-(4-aminopyrrolo[2,1-f][1,2,4]triazin-7-yl)-5-((((4-(tert-butyl)phenoxy)(((S)-1-oxo-1-(((S)-tetrahydrofuran-3-yl)oxy)propan-2-yl)amino)phosphoryl)oxy)methyl)-2-cyanotetrahydrofuran-3,4-diyl Diacetate]	0.185
C[C@H](NP(=O)(OC[C@H]1O[C@@](C#N)(c2ccc3c(N)ncnn23)[C@H](O)[C@@H]1O)Oc1ccc(C(C)(C)C)cc1)C(=O)O[C@H]1CCOC1 (stereo partly drawn) [Example 34, (S)-tetrahydrofuran-3-yl ((((2R,3S,4R,5R)-5-(4-aminopyrrolo[2,1-f][1,2,4]triazin-7-yl)-5-cyano-3,4-dihydroxytetrahydrofuran-2-yl)methoxy)(4-(tert-butyl)phenoxy)phosphoryl)-L-alaninate]	1.5
CC(C)C(=O)O[C@H]1[C@@H](OC(=O)C(C)C)[C@](C#N)(c2ccc3c(N)ncnn23)O[C@@H]1COP(=O)(N[C@@H](C)C(=O)OCC1CCCCC1)Oc1ccc(C(C)(C)C)cc1 (stereo partly drawn) [Example 164, (2R,3R,4R,5R)-2-(4-aminopyrrolo[2,1-f][1,2,4]triazin-7-yl)-5-((((4-(tert-butyl)phenoxy)(((S)-1-(cyclohexylmethoxy)-1-oxopropan-2-yl)amino)phosphoryl)oxy)methyl)-2-cyanotetrahydrofuran-3,4-diyl bis(2-methylpropanoate)]	0.107
CC(=O)O[C@H]1[C@@H](OC(C)=O)[C@](C#N)(c2ccc3c(N)ncnn23)O[C@@H]1COP(=O)(N[C@@H](C)C(=O)OC1CCCCC1)Oc1ccc(C(C)(C)C)cc1 (stereo partly drawn) [Example 148, (2R,3R,4R,5R)-2-(4-aminopyrrolo[2,1-f][1,2,4]triazin-7-yl)-5-((((4-(tert-butyl)phenoxy)(((S)-1-(cyclohexyloxy)-1-oxopropan-2-yl)amino)phosphoryl)oxy)methyl)-2-cyanotetrahydrofuran-3,4-diyl Diacetate]	0.0593
COCCOC(=O)[C@H](C)NP(=O)(OC[C@H]1O[C@@](C#N)(c2ccc3c(N)ncnn23)[C@H](O)[C@@H]1O)Oc1ccc(C(C)(C)C)cc1 (stereo partly drawn) [Example 141, 2-methoxyethyl ((((2R,3S,4R,5R)-5-(4-aminopyrrolo[2,1-f][1,2,4]triazin-7-yl)-5-cyano-3,4-dihydroxytetrahydrofuran-2-yl)methoxy)(4-(tert-butyl)phenoxy)phosphoryl)-L-alaninate]	0.305
COC(C)COC(=O)[C@H](C)NP(=O)(OC[C@H]1O[C@@](C#N)(c2ccc3c(N)ncnn23)[C@H](OC(=O)C(C)C)[C@@H]1OC(=O)C(C)C)Oc1ccc(C(C)(C)C)cc1 (stereo partly drawn) [Example 162, (2R,3R,4R,5R)-2-(4-aminopyrrolo[2,1-f][1,2,4]triazin-7-yl)-5-((((4-(tert-butyl)phenoxy)(((2S)-1-(2-methoxypropoxy)-1-oxopropan-2-yl)amino)phosphoryl)oxy)methyl)-2-cyanotetrahydrofuran-3,4-diyl bis(2-methylpropanoate)]	0.0725
CCC(=O)O[C@H]1[C@@H](OC(=O)CC)[C@](C#N)(c2ccc3c(N)ncnn23)O[C@@H]1COP(=O)(N[C@@H](C)C(=O)OCC1CCC1)Oc1ccccc1 (stereo partly drawn) [Example 134, (2R,3R,4R,5R)-2-(4-aminopyrrolo[2,1-f][1,2,4]triazin-7-yl)-2-cyano-5-((((((S)-1-(cyclobutylmethoxy)-1-oxopropan-2-yl)amino)(phenoxy)phosphoryl)oxy)methyl)tetrahydrofuran-3,4-diyl Dipropionate]	0.0938
COC(C)(C)COC(=O)[C@H](C)NP(=O)(OC[C@H]1O[C@@](C#N)(c2ccc3c(N)ncnn23)[C@H](O)[C@@H]1O)Oc1cccc2ccccc12 (stereo partly drawn) [Example 128, 2-methoxy-2-methylpropyl ((((2R,3S,4R,5R)-5-(4-aminopyrrolo[2,1-f][1,2,4]triazin-7-yl)-5-cyano-3,4-dihydroxytetrahydrofuran-2-yl)methoxy)(naphthalen-1-yloxy)phosphoryl)-L-alaninate]	0.525
C[C@H](NP(=O)(OC[C@H]1O[C@@](C#N)(c2ccc3c(N)ncnn23)[C@H](O)[C@@H]1O)Oc1ccc(C(C)(C)C)cc1)C(=O)OC1CCCCC1 (stereo partly drawn) [Example 142, cyclohexyl ((((2R,3S,4R,5R)-5-(4-aminopyrrolo[2,1-f][1,2,4]triazin-7-yl)-5-cyano-3,4-dihydroxytetrahydrofuran-2-yl)methoxy)(4-(tert-butyl)phenoxy)phosphoryl)-L-alaninate]	0.0735
CCOC(=O)[C@H](C)NP(=O)(OC[C@H]1O[C@@](C#N)(c2ccc3c(N)ncnn23)[C@H](O)[C@@H]1O)Oc1ccc(C23CC(C2)C3)cc1 (stereo partly drawn) [Example 41, Ethyl ((((2R,3S,4R,5R)-5-(4-aminopyrrolo[2,1-f][1,2,4]triazin-7-yl)-5-cyano-3,4-dihydroxytetrahydrofuran-2-yl)methoxy)(4-(bicyclo[1.1.1]pentan-1-yl)phenoxy)phosphoryl)-L-alaninate]	0.142
CCCOC(=O)[C@H](C)NP(=O)(OC[C@H]1O[C@@](C#N)(c2ccc3c(N)ncnn23)[C@H](O)[C@@H]1O)Oc1ccc(C(C)(C)C)cc1 (single isomer, unassigned) [Example 47a]	0.0416
CCCOC(=O)[C@H](C)NP(=O)(OC[C@H]1O[C@@](C#N)(c2ccc3c(N)ncnn23)[C@H](OC(=O)C(C)C)[C@@H]1OC(=O)C(C)C)Oc1ccc(C(C)(C)C)cc1 (single isomer, unassigned) [Example 48a]	0.034
CC(C)C(=O)O[C@H]1[C@@H](OC(=O)C(C)C)[C@](C#N)(c2ccc3c(N)ncnn23)O[C@@H]1COP(=O)(N[C@@H](C)C(=O)OC1CC2(CCCC2)C1)Oc1ccc(C(C)(C)C)cc1 (stereo partly drawn) [Example 100a, (2R,3R,4R,5R)-2-(4-aminopyrrolo[2,1-f][1,2,4]triazin-7-yl)-5-((((4-(tert-butyl)phenoxy)(((S)-1-oxo-1-(spiro[3.4]octan-2-yloxy)propan-2-yl)amino)phosphoryl)oxy)methyl)-2-cyanotetrahydrofuran-3,4-diyl bis(2-methylpropanoate)]	0.111
CC(C)C(=O)O[C@H]1[C@@H](OC(=O)C(C)C)[C@](C#N)(c2ccc3c(N)ncnn23)O[C@@H]1COP(=O)(N[C@@H](C)C(=O)O[C@H]1CCOC1)Oc1ccc(C(C)(C)C)cc1 (stereo partly drawn) [Example 36, (2R,3R,4R,5R)-2-(4-aminopyrrolo[2,1-f][1,2,4]triazin-7-yl)-5-((((4-(tert-butyl)phenoxy)(((S)-1-oxo-1-(((S)-tetrahydrofuran-3-yl)oxy)propan-2-yl)amino)phosphoryl)oxy)methyl)-2-cyanotetrahydrofuran-3,4-diyl bis(2-methylpropanoate)]	0.102
C[C@H](NP(=O)(OC[C@H]1O[C@@](C#N)(c2ccc3c(N)ncnn23)[C@H](O)[C@@H]1O)Oc1ccc(C(C)(C)C)cc1)C(=O)OCc1ccccc1 (stereo partly drawn) [Example 57, Benzyl ((((2R,3S,4R,5R)-5-(4-aminopyrrolo[2,1-f][1,2,4]triazin-7-yl)-5-cyano-3,4-dihydroxytetrahydrofuran-2-yl)methoxy)(4-(tert-butyl)phenoxy)phosphoryl)-L-alaninate]	0.186
